Tests used:
[1] = system: HT-1080 cells; experiment: Apoptosis by Annexin V-FITC/PI flow cytometry, HT-1080; type: cell-based
Experimental: (§1) To elucidate the mechanism of cancer cell growth suppression by vector-based WT1 siRNAs, induction of apoptosis in cells subjected to a vector-based WT1 siRNA treatment was analyzed. Two WT1-expressing cell lines HT-1080 and AZ-521, and a non-WT1-expressing cell line PC-14 were subjected to the WRI-4m treatment, double-stained with AnnexinV-FITC and PI, and then analyzed by flow cytometry.
(§2) Apoptosis analysis by flow cytometry was carried out by the following steps. First, to detect apoptosed cells, 1.0×10^5 cells were washed with PBS, and then the cells were stained by reaction with Annexin V-FITC and PI at room temperature for 15 minutes, using the MEBCYTO Apoptosis kit (Medical and Biological Laboratories Co., Ltd, Nagoya, Japan). Upon analysis of these cells using a FACScan flowcytometer (Becton Dickinson, San Jose, Calif.), Annexin V-FITC-positive cells were defined as apoptosed cells.

[2] = system: HL-60 leukemia cells; experiment: Cell count 72 hours after vector introduction, HL-60; type: cell-based; conditions: HL-60, cell count 72 hours later
Experimental: (§3) Treatments with the siRNA vectors and mock vector were carried out in the following steps. Cells were plated onto a 6-well plate, and on the next day, the WT1-siRNA expression vectors and mock vector were transiently expressed by lipofection using FuGENE 6 (Roche). Three days later, the cells were trypsinized and the number of cells was counted. The WT1 protein expression level in these cells was analyzed by Western blotting.
(§4) Furthermore, to investigate whether two types of vector-based WT1 siRNAs (WRI-4m and WRI-16m) can suppress the growth of various WT1-expressing cancer cells, these vectors were introduced into three WT1-expressing cell lines: AZ-521 gastric cancer cells, SW620 colon cancer cells, and HL-60 leukemia cells, and the number of cells were counted 72 hours later.

[3] = system: SW620 colon cancer cells; experiment: Cell count 72 hours after vector introduction, SW620; type: cell-based; conditions: SW620, cell count 72 hours later
Experimental: as §3, §4

[4] = system: HT-1080 cells; experiment: Mitochondrial membrane potential by MitoLight staining and flow cytometry, HT-1080; type: cell-based; conditions: HT-1080, 72 hours, compared to mock vector treatment
Experimental: (§5) To elucidate whether the vector-based WT1 siRNA-induced apoptosis takes place through a mitochondria-mediated pathway, the WT1-expressing cell line HT-1080 cells and the non-WT1-expressing cell line PC14 cells were both treated with WRI-4m and a mock vector respectively. 72 hours later, the state of mitochondrial membrane potential was analyzed by MitoLight staining followed by flow cytometry.
(§6) The change in mitochondrial membrane potential (ΔΨm) due to apoptosis induction was analyzed using the MitoLight apoptosis detection kit (Chemicon). Cells after apoptosis induction were incubated at 37° C. in a buffer containing MitoLight (a mitochondria staining dye) for 15 minutes, and then analyzed on a FACScan FL2 channel.

[5] = system: cancer cells; experiment: Mitochondrial membrane potential after combined treatment (flow cytometry); type: cell-based; conditions: compared to anticancer agent alone
Experimental: as §6
Combined use of an siRNA vector with a chemotherapeutic agent or a death ligand, was carried out by the following steps. Cells were plated onto a 6-well plate, and on the next day, the vector-based WT1 siRNA and mock vector were transiently expressed by lipofection using FuGENE 6 (Roche), and 48 hours later, the cells were treated for another 24 hours with 25 μM etoposide (WAKO), 0.2 μM doxorubicin (Sigma), or […] of TNF-related apoptosis-inducing ligand (TRAIL) (Peprotech).
Mitochondrial membrane potential after combined treatment using vector-based WT1 siRNA with doxorubicin, etoposide, and TRAIL, respectively, was evaluated by flow cytometry.

[6] = system: cancer cells; experiment: Release of cytochrome c from mitochondria into cytoplasm after combined treatment (Western blot); type: cell-based
Experimental: Western blot analysis was carried out by the following steps. Cells transiently expressing the siRNA expression vectors and mock vector were dissolved in an SDS sample buffer, and proteins were separated by SDS-PAGE and then blotted onto a PVDF membrane. Color was developed using a BCIP-NBT kit with the anti-WT1 antibody C-19 (Santa Cruz Biotechnology), an anti-cytochrome C antibody (Pharmingen), or an anti-GAPDH antibody (Chemicon) as a primary antibody, and an ALP-conjugated anti-rabbit or anti-mouse antibody (Santa Cruz Biotechnology) as a second antibody.
Combined use of an siRNA vector with a chemotherapeutic agent or a death ligand, was carried out by the following steps. […]
To reveal that enhancement of cell growth suppression due to combined use of vector-based WT1-siRNA with an anticancer agent is caused by enhancing the induction of mitochondria-mediated apoptosis, the release of cytochrome c from mitochondria into cytoplasm which takes place after combined treatment of vector-based WT1-siRNA with doxorubicin or etoposide was analyzed.
The release of cytochrome c from mitochondria into cytoplasm was analyzed by the following steps. […]

[7] = system: PC-14; experiment: Apoptosis by Annexin V-FITC/PI flow cytometry, PC-14; type: cell-based; conditions: PC-14 (non-WT1-expressing)
Experimental: as §1, §2

[8] = system: PC-14; experiment: Mitochondrial membrane potential by MitoLight staining and flow cytometry, PC-14; type: cell-based; conditions: PC-14 (non-WT1-expressing), 72 hours
Experimental: as §5, §6

[9] = system: HT-1080 fibrosarcoma cells (WT1-expressing); experiment: Cell count 72 hours after introducing vector-based WT1 siRNAs, HT-1080; conditions: HT-1080, cell count 72 hours after introduction, versus mock vector
Experimental: as §3
To analyze the effect of vector-based WT1 siRNAs on cell growth, the number of cells was counted 72 hours after introducing the six types of vector-based WT1 siRNAs, loop1-WRI-4, WRI-4, WRI-4m, WRI-16m, WRI-17m, and WRI-18m, and a mixture of WRI-4m, WRI-16m, WRI-17m, and WRI-18m, respectively. […] Among the WT1 siRNAs, WRI-4m suppressed growth by 90% or more. In contrast, in PC-14 lung cancer cells (a non-WT1-expressing cell line), cell growth was not suppressed by any of the six vector-based WT1 siRNA treatments (FIG. 6).

[10] = system: AZ-521 gastric cancer cells; experiment: Cell count 72 hours after vector introduction, AZ-521; type: cell-based; conditions: AZ-521, cell count 72 hours later
Experimental: as §3, §4

[11] = system: AZ-521 cells; experiment: Apoptosis by Annexin V-FITC/PI flow cytometry, AZ-521; type: cell-based
Experimental: as §1, §2

“WRI-4m: siRNA vector, loop 2, target positions 1150-1179 (SEQ ID NO: 9), mutated sense strand SEQ ID NO: 11 (sense AGCTCCAGCTTAGTGAAGTGGGTAGGAGGG)” was tested, and the “apoptosis induced (Annexin V-FITC-positive cells)” value [1] was 71.1%, the “growth compared to mock vector treatment” value [2] was “significantly suppressed” and the “growth compared to mock vector treatment” value [3] was “significantly suppressed”. The “loss of the mitochondrial membrane potential” value [4] was “significantly induced”, the “loss of mitochondrial membrane potential” value ([5]; combined treatment with doxorubicin) was “significantly enhanced” and the “loss of mitochondrial membrane potential” value ([5]; combined treatment with etoposide) was “significantly enhanced”. The “release of cytochrome c into cytoplasm” value ([6]; combined treatment with doxorubicin (0.2 μM, 24 hours)) was “enhanced”, the “release of cytochrome c into cytoplasm” value ([6]; combined treatment with etoposide (25 μM, 24 hours)) was “enhanced” and the apoptosis induction [7] was “did not induce apoptosis”. The “loss of the mitochondrial membrane potential” value [8] was “did not induce”, the growth suppression [9] was no less than 90% and the “growth compared to mock vector treatment” value [10] was “significantly suppressed”. For the same substance, the “apoptosis induced (Annexin V-FITC-positive cells)” value [11] was 40.6%.

From patent publication US8603997B2, “siRNA that inhibits WT1 gene expression and uses thereof” (Haruo Sugiyama, priority 2004, dated 2013)
